Laboratory results as given in patent publication US11324725B2, “Compositions and methods for the inhibition of pruritus” (The United States of America, as represented by the …, priority 2017, dated 2022).
“Also recorded” adds a separate entry of the source.

Assays:
[1] = tested on: soluble guanylate cyclase / pGloSensor-40F reporter in HEK-cGMP-sensor cells; assay: Counter-screen, SNP-stimulated HEK-cGMP-sensor cells; type: cell-based, human
Excerpt: In order to identify small molecular compounds that inhibit the Npr1 receptor a high-throughput assay to probe inhibition of the receptor guanylate cyclase Npr1 was developed. The assay was designed taking advantage of Promega's GloSensor™ technology (Promega, Madison, Wis.). This technology involves the expression of a cyclic guanosine monophosphate (cGMP) biosensor, comprised of a firefly luciferase variant that was coupled to the cGMP binding domain of human phosphodiesterase 5A, and loading of cells with a cell-permeable luciferase substrate to monitor cGMP production by Npr1 in real time in live cells. Briefly, human embryonic kidney 293 cells stably expressing the human Npr1 and the pGloSensor™-40F cGMP vector (“pGloSensor™-40F”) were generated. Stimulating these cells with the Npr1 agonists human NppA or NppB, luciferase-induced light production could be detected in a dose-dependent manner. HEK293 cells stably expressing human Npr2 and pGS-40F and cells only expressing pGS-40F were also generated to conduct secondary counter screens. In these cells, NppC or sodium nitroprusside were used to stimulate Npr2 or soluble guanylate cyclase which is endogenously expressed in HEK293 cells, respectively. The Npr2-NppC counter screen was employed to search for agents that minimally effected this agonist-receptor interaction. The Npr2-NppC system was used because the side effects of most drugs occur on related receptors. Npr1 and Npr2 are the most related receptors in sequence and function and there are no additional active receptor subtypes in this family of receptors. The procedure is described in detail below.
First, hNpr1 assays were repeated, at 11 concentrations on all selected compounds, to validate all positive compounds from the primary screen. This confirmed the selection criteria used for the selection of the active compounds. […]

Firefly luciferase = Firefly luciferase (Photinus pyralis, UniProt P08659); assay: Biochemical Firefly luciferase enzymatic counter-screen; conditions: for Direct effect on Firefly luciferase (in words): FLuc in vitro; for Imax, Fluc in vitro: −100% = 57.5 μM PTC124, n.d. = inhibition not detectable at all
Procedure: Direct effects of compounds on firefly luciferase enzymatic activity were tested in vitro. A Firefly luciferase enzyme assay was performed on the 1,408 follow-up compounds. To achieve half-maximal reaction velocity, the D-Luciferin substrate concentration equaled Km and the assay was otherwise performed according to Jang et al., ACS Chem. Bio., 7: 1205-1213 (2012) (which is incorporated herein by reference, in its entirety), as follows: 3 μl of substrate-buffer solution (0.01 mM D-Luciferin, 0.01 mM ATP, 50 mM Tris Acetate, 10 mM Mg Acetate, 0.01% Tween-20 and 0.038% BSA final concentrations) were dispensed into white, solid bottom medium bind 1536-well plates (Greiner Bio-One) with a BioRAPTR Flying Reagent Dispenser™ (Beckman Coulter). Compounds were transferred as described for qHTS along with DMSO (as a negative control) and titrations of PTC124 (as a positive control), ranging from the top concentration of 57.5 μM to 4.0 μM in columns 1-4 of each plate as vehicle and positive controls, respectively. Luciferase enzyme-buffer solution (1 μl) (10 nM P. pyralis luciferase in 50 mM Tris Acetate final concentration) was dispensed and after a 5-minute incubation at room temperature, luminescence was read on a ViewLux™ plate reader.

[2] = tested on: HEK-hNpr1-cGMP-sensor cells; assay: Cytotoxicity counter-screen (CellTiter-Glo); type: cell-based, human; conditions: for Imax, cytotoxicity: −100% = 115 μM Digitonin, n.d. = inhibition not detectable at all
Procedure: (§1) Compound cytotoxicity was tested with Promega's CellTiter-Glo™ assay which measures cellular adenosine triphosphate content, a surrogate of metabolic activity, with a firefly luciferase reagent. A cytotoxicity counter-screen using HEK-hNpr1-cGMP-sensor cells was performed on the 1,408 follow-up compounds. Cells (1.5×10^3) cells were plated in 4 μL C02-independent media in white, solid bottom TC-treated 1536-well plates (Greiner Bio-One). Cells were incubated at 37° C., 5% CO2 and 95% humidity for 16 hours. Compound transfer was performed as described for qHTS along with DMSO and a titration of Digitonin from a top concentration of 115 μM to 3.5 nM in columns 1-4 of each assay plate as vehicle and cytotoxicity controls, respectively. Cells were incubated with compound for 2 hours at 37° C. CellTiter-Glo™ reagent (Promega) (3 μl) was added to each well with a BioRAPTR Flying Reagent Dispenser™ (Beckman Coulter) and plates were incubated for 10 min at room temperature, protected from light. Luminescence was measured on a ViewLux™ plate reader. Data were normalized to the average signal of DMSO-treated wells as 0% and the average signal of wells treated with 115 μM Digitonin as −100% activity and analyzed as above.

C57BL/6N mice = assay: Acute scratching behavior, CYM5442-induced; type: in vivo, mouse; conditions: 163 μg i.p., 10 minutes before 8.9 μg CYM5442 into nape of neck; bouts per 30 minutes
Procedure: All experiments using mice followed NIH guidelines and were approved by the National Institute of Dental and Craniofacial Research ACUC. Behavioral assessment of scratching behavior was conducted as follows: 6-8-week old female C57BL/6N mice (Envigo) were injected intraperitoneally with JS-11 (163 μg) or DMSO (20%) as a vehicle control. Ten minutes later, 100 μg histamine diluted in 10 μl PBS or 8.9 μg CYM5442 diluted in 10 μl ddH2O was injected subcutaneously into the nape of the neck. Scratching behavior was recorded for 30 minutes and is presented in bouts per 30 minutes. One bout was defined as scratching behavior towards the injection site between lifting the hind leg from the ground and either putting it back on the ground or guarding the paw with the mouth. To control for motor impairment by JS-11, rota-rod performance was also assessed 10 minutes after intraperitoneal injection.

[3] = Cytotoxicity counter-screen (CellTiter-Glo); type: cell-based, human; conditions: human, HEK-hNpr1-cGMP-sensor cells; 2 hours with compound, CellTiter-Glo
Procedure: as §1

Sequence of Firefly luciferase (P08659 whole entry): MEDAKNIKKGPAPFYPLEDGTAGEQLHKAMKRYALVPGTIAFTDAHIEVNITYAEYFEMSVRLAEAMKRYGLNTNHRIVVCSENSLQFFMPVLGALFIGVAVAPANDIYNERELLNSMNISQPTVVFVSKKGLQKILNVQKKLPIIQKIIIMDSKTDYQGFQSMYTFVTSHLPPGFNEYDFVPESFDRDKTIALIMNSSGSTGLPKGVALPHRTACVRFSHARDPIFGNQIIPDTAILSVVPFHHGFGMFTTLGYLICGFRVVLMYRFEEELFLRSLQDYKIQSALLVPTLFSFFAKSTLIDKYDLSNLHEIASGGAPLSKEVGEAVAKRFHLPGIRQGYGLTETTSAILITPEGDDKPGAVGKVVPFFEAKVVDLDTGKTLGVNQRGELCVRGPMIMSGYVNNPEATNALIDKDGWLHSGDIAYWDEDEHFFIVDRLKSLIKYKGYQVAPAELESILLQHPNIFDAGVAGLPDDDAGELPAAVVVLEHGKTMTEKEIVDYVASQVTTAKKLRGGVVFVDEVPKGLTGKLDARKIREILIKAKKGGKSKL

Row | Structure (SMILES) | Effect on SNP-induced GloSensor signals (in words) [1] | Direct effect on Firefly luciferase (in words) (Firefly luciferase) | Cytotoxicity (in words) [2] | Scratching responses to CYM5442 (C57BL/6N mice) | IC50 at 2 h [3] | Imax, cytotoxicity [2] | IC50 (Firefly luciferase) | Imax, Fluc in vitro (Firefly luciferase)
1 | Cc1cc(CNC(=O)c2ccc3c(c2)n(CC2CC2)c(=O)n3C2CCCCC2)on1 [JS-11, 1-cyclohexyl-3-(cyclopropylmethyl)-N-((3-methylisoxazol-5-yl)methyl)-2-oxo-2,3-dihydro-1H-benzo[d]imidazole-5-carboxamide] | do not attenuate SNP dependent cGMP sensor activation; also recorded: does not block SNP-induced GloSensor™ signals | do not directly inhibit luciferase; also recorded: does not inhibit Firefly luciferase | are not cytotoxic; also recorded: does not produce cytotoxicity | strongly attenuated itch response; also recorded: significantly attenuated | – | – | – | –
2 | Cc1noc(C)c1-c1cc(-c2ccccc2Oc2ccccc2)cn2cncc12 [JS-5, 3,5-dimethyl-4-(6-(2-phenoxyphenyl)imidazo[1,5-a]pyridin-8-yl)isoxazole] | do not attenuate SNP dependent cGMP sensor activation; also recorded: does not block SNP-induced GloSensor™ signals | do not directly inhibit luciferase; also recorded: does not inhibit Firefly luciferase | are not cytotoxic; also recorded: does not produce cytotoxicity | – | – | – | – | –
3 | Cc1nn2c(c1-c1ccccc1OCc1ccccc1)N(C(=O)Cc1ccc3c(c1)OCO3)CCC2 [JS-8, 2-(benzo[d][1,3]dioxol-5-yl)-1-(3-(2-(benzyloxy)phenyl)-2-methyl-6,7-dihydropyrazolo[1,5-a]pyrimidin-4(5H)-yl)ethan-1-one] | do not attenuate SNP dependent cGMP sensor activation; also recorded: does not block SNP-induced GloSensor™ signals | do not directly inhibit luciferase; also recorded: does not inhibit Firefly luciferase | are not cytotoxic; also recorded: does not produce cytotoxicity | – | 49 ± 14 µM | −22 ± 29% | – | –
4 | CCC(CC)c1cc([C@H]2CN3CC[C@H]2C[C@@H]3CNS(=O)(=O)c2cccs2)nc(-c2ccncc2)n1 [JS-3, N-(((2R,4S,5R)-5-(6-(pentan-3-yl)-2-(pyridin-4-yl)pyrimidin-4-yl)quinuclidin-2-yl)methyl)thiophene-2-sulfonamide] | – | – | – | – | – | – | 25 ± 4 µM | −1 ± 6%
5 | Cl.O=C1Nc2ccccc2CN(CC2CCCCC2)C12CCNCC2 [JS-1, 4-(cyclohexylmethyl)-4,5-dihydrospiro[benzo[e][1,4]diazepine-3,4′-piperidin]-2(1H)-one hydrochloride] | – | – | – | – | – | – | – | −3 ± 3%
6 | COc1ccccc1-c1n[nH]c2ncc(C(=O)NCc3cccnc3)nc12 [JS-6, 3-(2-methoxyphenyl)-N-(pyridin-3-ylmethyl)-1H-pyrazolo[3,4-b]pyrazine-5-carboxamide] | – | – | – | – | 45 ± 43 µM | −36 ± 87% | – | –
